Data from US6106856A (The Board of Governors for Higher Education, State of Rhode …, priority 1995, dated 2000).
One block for each molecule: values may come before it.

Key:
[1] = Permeation through heat-separated human epidermis (Franz-diffusion cell); assay type: in vitro ADME
Description: (§1) […] of this solution was given on heat-separated human epidermis (breast, area 4.5 cm^2) which was mounted on a Franz-diffusion cell. The cell was filled with 23 ml of a mixture of 60 parts of a 0.9% NaCl-solution and 40 parts of polyethylene glycol 400 (v/v).

[2] = cited from earlier work
[3] = Recrystallization of applied saturated drug solution during the permeation experiment; assay type: physicochemical; conditions: applied crystal-free
Description: as §1

SMILES: COC(=O)C1=C(C)NC(C)=C(C(=O)OC)C1c1ccccc1[N+](=O)[O-] [Nifedipine]
Flux ([1]; 8 h column): 0.35 μg/cm *h | Flux ([1]; 24 h column): 7.44 μg/cm *h | Flux ([1]; 32 h column): 6.13 μg/cm *h | Flux ([1]; 48 h column): 12.29 μg/cm *h | correlation of hypotensive and untoward side effects with plasma concentration ([2]; clinical studies): correlated with the plasma nifedipine concentration | variation of transient, high plasma levels ([2]; oral administration of conventional capsules): may vary by tenfold | interindividual variability of plasma levels ([2]; oral administration): Extraordinary interindividual variability | heart rate and blood pressure effect on rapid increase of plasma concentration ([2]; rapid increase of plasma nifedipine concentration): marked increase in heart rate and little effect on blood pressure

recrystallization during the experiment [3]: recrystallization
SMILES: COCCOC(=O)C1=C(C)NC(C)=C(C(=O)OC(C)C)C1c1cccc([N+](=O)[O-])c1 (stereo not shown) [Nimodipine]

SMILES: O=[N+]([O-])OCC(CO[N+](=O)[O-])O[N+](=O)[O-] [nitroglycerin]
tolerance observed in patients ([2]; transdermal nitroglycerin): tolerance observed in patients
